BindingDB's records for PubMed 35080403 (Yunnan University of Chinese Medicine, 2022)

Target: Maltase-glucoamylase (Homo sapiens, UniProt O43451)
Test: Inhibition of Alpha-glucosidase (unknown origin)

Sequence of Maltase-glucoamylase (O43451 whole entry): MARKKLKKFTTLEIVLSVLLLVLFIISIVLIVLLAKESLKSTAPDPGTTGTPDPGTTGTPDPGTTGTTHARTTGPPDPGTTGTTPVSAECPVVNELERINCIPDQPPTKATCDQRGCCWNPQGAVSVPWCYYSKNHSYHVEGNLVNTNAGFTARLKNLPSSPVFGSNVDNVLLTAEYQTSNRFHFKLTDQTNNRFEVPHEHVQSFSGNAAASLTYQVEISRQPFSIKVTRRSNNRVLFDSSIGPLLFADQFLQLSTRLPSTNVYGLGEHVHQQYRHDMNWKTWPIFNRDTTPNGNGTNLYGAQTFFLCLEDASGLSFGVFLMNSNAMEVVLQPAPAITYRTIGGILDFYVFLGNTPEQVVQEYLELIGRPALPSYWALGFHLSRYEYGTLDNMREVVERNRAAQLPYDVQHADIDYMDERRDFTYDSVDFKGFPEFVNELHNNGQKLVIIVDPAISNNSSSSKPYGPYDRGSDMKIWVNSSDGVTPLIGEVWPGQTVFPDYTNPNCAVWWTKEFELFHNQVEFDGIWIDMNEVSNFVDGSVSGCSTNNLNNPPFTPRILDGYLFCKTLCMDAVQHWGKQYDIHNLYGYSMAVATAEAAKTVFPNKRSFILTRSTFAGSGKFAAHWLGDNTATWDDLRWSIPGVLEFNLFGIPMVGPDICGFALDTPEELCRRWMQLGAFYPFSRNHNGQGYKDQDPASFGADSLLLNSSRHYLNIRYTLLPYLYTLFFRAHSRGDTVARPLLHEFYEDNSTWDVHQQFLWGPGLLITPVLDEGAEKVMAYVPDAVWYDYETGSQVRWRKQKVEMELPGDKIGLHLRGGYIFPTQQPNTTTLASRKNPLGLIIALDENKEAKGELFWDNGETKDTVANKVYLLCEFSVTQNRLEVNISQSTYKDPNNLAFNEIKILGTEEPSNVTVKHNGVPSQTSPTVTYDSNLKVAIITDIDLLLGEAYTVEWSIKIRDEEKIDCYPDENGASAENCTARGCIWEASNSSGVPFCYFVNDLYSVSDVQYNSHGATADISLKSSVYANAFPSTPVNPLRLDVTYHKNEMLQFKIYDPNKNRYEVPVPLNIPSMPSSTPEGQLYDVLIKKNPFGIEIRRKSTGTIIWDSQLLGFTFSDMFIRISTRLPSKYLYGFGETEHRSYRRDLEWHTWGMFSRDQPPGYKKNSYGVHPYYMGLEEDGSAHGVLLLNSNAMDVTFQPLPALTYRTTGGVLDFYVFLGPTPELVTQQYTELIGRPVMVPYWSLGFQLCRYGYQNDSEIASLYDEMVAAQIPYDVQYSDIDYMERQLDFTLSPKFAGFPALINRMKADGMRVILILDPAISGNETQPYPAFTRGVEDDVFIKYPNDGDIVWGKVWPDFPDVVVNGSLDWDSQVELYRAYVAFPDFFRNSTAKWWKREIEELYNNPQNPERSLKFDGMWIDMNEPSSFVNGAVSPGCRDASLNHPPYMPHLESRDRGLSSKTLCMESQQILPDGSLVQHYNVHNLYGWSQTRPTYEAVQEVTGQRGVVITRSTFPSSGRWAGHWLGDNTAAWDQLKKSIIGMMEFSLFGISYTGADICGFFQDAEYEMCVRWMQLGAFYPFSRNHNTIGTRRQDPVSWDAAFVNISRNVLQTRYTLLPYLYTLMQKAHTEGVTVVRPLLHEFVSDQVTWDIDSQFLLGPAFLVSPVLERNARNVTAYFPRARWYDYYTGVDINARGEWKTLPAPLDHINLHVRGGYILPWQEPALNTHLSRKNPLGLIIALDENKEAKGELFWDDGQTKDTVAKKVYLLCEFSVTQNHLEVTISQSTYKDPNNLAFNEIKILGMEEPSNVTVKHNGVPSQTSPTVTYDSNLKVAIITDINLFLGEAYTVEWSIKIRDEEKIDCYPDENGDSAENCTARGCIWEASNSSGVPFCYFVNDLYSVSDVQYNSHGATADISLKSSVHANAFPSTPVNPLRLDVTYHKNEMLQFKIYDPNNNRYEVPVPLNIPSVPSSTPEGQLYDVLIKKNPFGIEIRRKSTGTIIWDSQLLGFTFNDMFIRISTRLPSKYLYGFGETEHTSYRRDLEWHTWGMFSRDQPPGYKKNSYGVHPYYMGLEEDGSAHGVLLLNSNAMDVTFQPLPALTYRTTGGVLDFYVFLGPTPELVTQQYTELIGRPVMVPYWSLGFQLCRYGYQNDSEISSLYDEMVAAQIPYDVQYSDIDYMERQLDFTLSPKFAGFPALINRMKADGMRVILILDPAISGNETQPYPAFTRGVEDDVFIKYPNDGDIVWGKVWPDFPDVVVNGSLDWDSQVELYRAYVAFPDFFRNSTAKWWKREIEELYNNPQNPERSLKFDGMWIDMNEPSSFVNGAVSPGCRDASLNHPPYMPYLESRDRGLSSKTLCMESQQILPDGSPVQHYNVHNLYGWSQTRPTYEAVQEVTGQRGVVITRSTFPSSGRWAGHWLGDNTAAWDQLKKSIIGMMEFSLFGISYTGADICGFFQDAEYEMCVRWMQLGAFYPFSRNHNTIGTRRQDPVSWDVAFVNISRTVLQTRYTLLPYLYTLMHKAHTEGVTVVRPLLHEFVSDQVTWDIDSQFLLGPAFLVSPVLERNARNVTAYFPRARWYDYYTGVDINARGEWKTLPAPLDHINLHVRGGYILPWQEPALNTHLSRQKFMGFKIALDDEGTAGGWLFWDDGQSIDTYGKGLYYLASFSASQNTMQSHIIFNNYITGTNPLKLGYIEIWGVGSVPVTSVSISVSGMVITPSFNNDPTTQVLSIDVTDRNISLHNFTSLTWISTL

IC50: 15.3 µM
SMILES: CC/C=C\C/C=C\CCC(=O)O[C@@]12[C@H](OC(=O)[C@@H](C)CC)[C@@H](C)[C@@]3(O)[C@@H](C(=O)C(CO)=C[C@]4(O)C(=O)C(C)=C[C@@H]34)[C@@H]1C2(C)C
